In paper PMC11784839, “Monoaminergic neurotransmitters are bimodal effectors of tau aggregation” (Science Advances, 2025):

Target: tau (Homo sapiens, UniProt P10636)
Experiment: MCE Phenols Library screening, tau biosensor cell seeding assay (AvZ)
Type: cell-based
Details: for Z repl 1 / Z Repl 2: Z score; for Z repl 1 / raw data 1: replicate 1; for Z Repl 2 / raw data 2: replicate 2; for AvZ (average z score of seeding, SDs from the mean level of seeding): 10 μM phenol in cell cultures, AD brain homogenate preincubated 16 hours, two biological replicates, positive = catalyzes seeding, negative = inhibits
[1] = average Z score of the two replicates, tau seeding
[2] = average puncta of the two replicates
[3] = average Z score of two replicates, Phenols Library screen
[4] = average Z score of the two replicates, MCE Phenols Library screen

Sequence of tau (P10636 623-695 limits assumed): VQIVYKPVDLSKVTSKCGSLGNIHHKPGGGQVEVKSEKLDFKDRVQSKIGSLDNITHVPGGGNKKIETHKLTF

| Compound | Z repl 1 | Z Repl 2 | av Z [1] | av puncta (average of raw data 1 and 2) | raw data 1 (puncta) | raw data 2 (puncta) | AvZ (average z score of seeding, SDs from the mean level of seeding) | av puncta [2] | raw data 1 (raw puncta) | raw data 2 (raw puncta) | av Z [3] | av Z [4] |
| --- | --- | --- | --- | --- | --- | --- | --- | --- | --- | --- | --- | --- |
| COc1cc(-c2coc3c([C@@H]4O[C@H](CO)[C@@H](O)[C@H](O)[C@H]4O)c(O)ccc3c2=O)ccc1O [3'-Methoxypuerarin] | 0.567 | -0.096 | 0.236 | 22452.2 | 33160 | 11744.3 |  |  |  |  |  |  |
| COc1cc(O)cc(OC)c1 [3,5-Dimethoxyphenol] | 0.645 | -0.096 |  | 22916.8 | 34097.4 | 11736.1 | 0.275 |  |  |  |  |  |
| O=C(O)CCc1cccc(O)c1 [3-(3-Hydroxyphenyl)propionic acid] | 1.121 | 1.553 |  | 34577.7 | 39805 | 29350.4 | 1.337 |  |  |  |  |  |
| N[C@@H](Cc1ccc(O)c(Cl)c1)C(=O)O [3-Chloro-L-tyrosine] | 0.451 | -0.515 |  | 19517.9 | 31767.4 | 7268.49 | -0.032 |  |  |  |  |  |
| O=Cc1cccc(O)c1 [3-Hydroxybenzaldehyde] | 0.08 | -0.354 |  | 18142.7 | 27305.1 | 8980.23 | -0.137 |  |  |  |  |  |
| O=C(O)c1cccc(O)c1 [3-Hydroxybenzoic acid] | -0.749 | -0.88 |  | 10365.4 | 17360.5 | 3370.33 | -0.814 |  |  |  |  |  |
| O=C(O)CNC(=O)c1cccc(O)c1 [3-Hydroxyhippuric acid] | 0.493 | -0.448 |  | 20125.5 | 32267.3 | 7983.73 | 0.023 |  |  |  |  |  |
| O=C(O)Cc1cccc(O)c1 [3-Hydroxyphenylacetic acid] | 0.164 | -0.218 |  | 19376.5 | 28313.1 | 10440 | -0.027 |  |  |  |  |  |
| COc1cc(CCN)ccc1O [3-Methoxytyramine] | 0.052 | -0.661 |  |  |  |  | -0.304 | 16341.1 | 26971.9 | 5710.28 |  |  |
| Cc1cccc(O)c1O [3-Methylcatechol] | -0.458 | -0.383 |  |  |  |  | -0.42 | 14763.7 | 20851.2 | 8676.12 |  |  |
| N[C@@H](Cc1ccc(O)c([N+](=O)[O-])c1)C(=O)O [3-Nitro-L-tyrosine] | 0.936 | 1.418 |  | 32750.4 | 37588.7 | 27912.2 | 1.177 |  |  |  |  |  |
| COC(=O)[C@]1(O)C[C@@H](O)[C@@H](O)[C@H](OC(=O)/C=C/c2ccc(O)c(O)c2)C1 [3-O-Caffeoylquinic acid methyl ester] | -0.373 | 0.274 |  | 18786.4 | 21876.3 | 15696.4 |  |  |  |  | -0.049 |  |
| COc1cc(C(=O)O)cc(O)c1O [3-O-Methylgallic acid] | -1.04 | -0.532 |  | 10472 | 13858.8 | 7085.12 | -0.786 |  |  |  |  |  |
| O=c1cc(-c2ccc(O)cc2)oc2cccc(O)c12 [4',5-Dihydroxyflavone] | 0.443 | 0.397 | 0.42 | 24336.3 | 31664.4 | 17008.3 |  |  |  |  |  |  |
| CC(=O)c1ccc(O)c(C)c1 [4'-Hydroxy-3'-methylacetophenone] | 0.035 | -0.259 |  | 18387.5 | 26771.9 | 10003.1 | -0.112 |  |  |  |  |  |
| O=C(/C=C/c1ccccc1)c1ccc(O)cc1 [4'-Hydroxychalcone] | 0.138 | 0.314 | 0.226 | 22065.5 | 28009.6 | 16121.4 |  |  |  |  |  |  |
| COc1ccc(/C=C/c2cc(O)cc(O)c2)cc1 [4'-Methoxyresveratrol] | 0.613 | 0.599 | 0.606 | 26435.9 | 33711.1 | 19160.7 |  |  |  |  |  |  |
| COc1cc(O)c(C(=O)/C=C/c2ccc(O)cc2)cc1CC=C(C)C [4'-O-Methylbavachalcone] | -0.312 | 0.23 |  | 18915.2 | 22607.8 | 15222.5 |  |  |  |  | -0.041 |  |

| Compound | Z repl 1 | Z Repl 2 | av Z [1] | av puncta (average of raw data 1 and 2) | raw data 1 (puncta) | raw data 2 (puncta) | AvZ (average z score of seeding, SDs from the mean level of seeding) | av puncta [2] | raw data 1 (raw puncta) | raw data 2 (raw puncta) | av Z [3] | av Z [4] |
| --- | --- | --- | --- | --- | --- | --- | --- | --- | --- | --- | --- | --- |
| O=C(C=Cc1ccc(O)c(O)c1)OC1CC(O)(C(=O)O)CC(O)C1OC(=O)C=Cc1ccc(O)c(O)c1 (stereo not shown) [4,5-Dicaffeoylquinic acid] | -1.017 | -0.252 |  |  | 14137.8 | 10071.7 |  | 12104.8 |  |  |  | -0.635 |
| OCC(O)c1ccc(O)c(O)c1 (stereo not shown) [4-(1,2-Dihydroxyethyl)benzene-1,2-diol] | -0.442 | -0.042 |  |  |  |  | -0.242 | 16682.4 | 21044.7 | 12320.1 |  |  |
| C=CCc1ccc(O)c(O)c1 [4-Allylcatechol] | -0.394 | -1.127 |  | 11173.7 | 21621.8 | 725.499 | -0.761 |  |  |  |  |  |
| CCc1ccc(O)cc1O [4-Ethylresorcinol] | -1.505 | -0.734 |  | 6604.27 | 8283.51 | 4925.02 | -1.119 |  |  |  |  |  |
| COc1cc(/C=C/C(=O)O[C@H]2[C@H](O)C[C@](O)(C(=O)O)C[C@H]2O)ccc1O [4-Feruloylquinic acid] | -1.622 | -0.646 |  | 6372.47 | 6875.06 | 5869.87 |  |  |  |  |  | -1.134 |
| O=Cc1c[nH]c2cccc(O)c12 [4-Hydroxy-1H-indole-3-carbaldehyde] | 0.51 | -0.086 |  | 22163.8 | 32475.1 | 11852.6 | 0.212 |  |  |  |  |  |
| O=C(O)c1ccc(O)cc1 [4-Hydroxybenzoic acid] | -0.323 | -0.785 |  |  | 22475.3 | 4386.59 | -0.554 | 13431 |  |  |  |  |
| N#CCc1ccc(O)cc1 [4-Hydroxybenzyl cyanide] | 0.423 | -0.552 |  | 19148.8 | 31425.1 | 6872.51 | -0.064 |  |  |  |  |  |
| NCc1ccc(O)cc1 [4-Hydroxybenzylamine] | -0.693 | -0.451 |  |  | 18024.8 | 7945.11 | -0.572 | 12984.9 |  |  |  |  |
| O=C(/C=C/c1ccc(O)cc1)c1ccccc1 [4-Hydroxychalcone] | -0.784 | -0.093 |  |  |  |  |  | 14353.6 | 16932.9 | 11774.3 |  | -0.439 |
| CCC1(c2ccc(O)cc2)NC(=O)N(C)C1=O (stereo not shown) [4-Hydroxymephenytoin] | -0.081 | -0.754 |  |  |  |  |  | 15044.9 | 25375.4 | 4714.28 |  | -0.418 |
| CC(=O)OCCc1ccc(O)c(O)c1 [4-Hydroxytyrosol acetate] |  |  |  |  |  |  | -0.526 |  |  |  |  |  |
| COc1ccc(C=O)cc1 [4-Methoxybenzaldehyde] | -0.17 | 0.786 |  | 22737.8 | 24311 | 21164.6 | 0.308 |  |  |  |  |  |
| Cc1ccc(O)c(O)c1 [4-Methylcatechol] | -1.54 | -0.975 |  | 5109.52 | 7864.83 | 2354.22 | -1.257 |  |  |  |  |  |
| Cc1cc(=O)oc2c(O)c(O)ccc12 [4-Methyldaphnetin] | -1.037 | -0.74 |  | 9377.72 | 13895.3 | 4860.11 |  |  |  |  |  | -0.889 |
| Cc1cc(=O)oc2cc(O)c(O)cc12 [4-Methylesculetin] | 0.302 | -0.022 | 0.14 | 21252.2 | 29975.4 | 12529 |  |  |  |  |  |  |
| Cc1cc(=O)oc2cc(O)ccc12 [4-Methylumbelliferone] | -0.898 | -0.379 |  |  | 15562.7 | 8717.47 |  | 12140.1 |  |  |  | -0.639 |
